The record followed here is US20210292843A1, “TREATMENT OF DISEASES ASSOCIATED WITH ACTIVATED IRAK” (CHILDREN'S HOSPITAL MEDICAL CENTER, priority 2016, published 2021).

Common to all, as to format: cell-based, human
Assay [1] concerns phospho-IRAK1, phospho-pIKK, and phospho-p65. Nature of the assay: Immunoblotting of innate immune signaling after IRAK1/4 inhibitor treatment. The conditions noted are these: S34F-U2AF1 K562 cells; IRAK1/4 inhibitor for 1 hour and 2 hours; immunoblot (FIG. 13A). On the procedure:
Total protein lysates were obtained from cells by lysing the samples in cold RIPA buffer (50 mM Tris-HCl, 150 mM NaCl, 1 mM EDTA, 1% Triton X-100 and 0.1% SDS), in the presence of PMSF, sodium orthovanadate, protease and phosphatase inhibitors. Protein concentration was evaluated by a BCA assay (32106, Pierce, Rockford, Ill.). The bound proteins were separated by SDS-polyacrylamide gel electrophoresis, transferred to nitrocellulose membranes, and analyzed by immunoblotting. Western blot analysis was performed with the following antibodies: IRAK4 C-term (ab5985; Abcam, Cambridge, UK), IRAK N-term (4363; Cell Signaling Technology), GAPDH (5174; Cell Signaling Technology), Flag (F3165; Sigma, St. Louis, Mo.), IRAK1 (sc-7883; Santa Cruz, Dallas, Tex.), phospho-IRAK1 (T209) (A1074; AssaybioTech, Sunnyvale, Calif.), U2AF1 (ab86305; Abeam), IKKβ (2370; Cell Signaling Technology), phospho-IKKα/β (2697; Cell Signaling Technology), p38 MAPK (9212; Cell Signaling Technology), phopho-p38 MAPK (4631; Cell Signaling Technology), ERK (4695; Cell Signaling Technology), phospho-ERK (4377; Cell Signaling Technology), p65 (8242; Cell Signaling Technology) and phospho-p65 (3033; Cell Signaling Technology).
Doxycycline-inducible FLAG-tagged WT U2AF1 or FLAG-tagged mutant U2AF1(S34F) lentiviral expression plasmids have been previously described, and lentivirus was generated in 293T cells with the packaging plasmids pMD-G, pMD-Lg and REV. Concentrated virus (multiplicity of infection (MOI) of 3 for K562, MOI of 5 for OCI-AML3) was used to transduce K562 cells (ATCC, CCL243) or OCI-AML3 (DSMZ, ACC 582). […]
(§1) It was then investigated in whether or not there was a therapeutic opportunity in a subset of patients with increased IRAK4-Long expression, since expression of IRAK4-Long is associated with poor AML patient outcome (as described in Example 4, above). […] K562 WT- and S34F-U2AF1 were treated with DMSO or 10 uM IRAK1/4 inhibitor for 7 days, and cell viability was monitored by trypan blue exclusion. […]
(§2) Viability was measured by Trypan Blue staining. […] Colonies were counted after 7 days.
Background: A western blot detects proteins with antibodies after separation by electrophoresis.

In assay [2] the test system is K562 S34F-U2AF1 cells. As to the kind of experiment: Growth curve, cell viability by trypan blue exclusion. The conditions noted are these: 10 uM inhibitor vs DMSO, S34F-U2AF1 cells (FIG. 13B).
Text: (§3) Doxycycline-inducible FLAG-tagged WT U2AF1 or FLAG-tagged mutant U2AF1(S34F) lentiviral expression plasmids have been previously described, and lentivirus was generated in 293T cells with the packaging plasmids pMD-G, pMD-Lg and REV. Concentrated virus (multiplicity of infection (MOI) of 3 for K562, MOI of 5 for OCI-AML3) was used to transduce K562 cells (ATCC, CCL243) or OCI-AML3 (DSMZ, ACC 582). Transduced cells (marked by green fluorescent protein) were isolated by flow cytometry cell sorting. Expression of mutant or WT U2AF1 was induced using the indicated concentrations of doxycycline hyclate (Sigma) in water. (Shirai C, et al., 2017)
(§4) Trypan blue exclusion was measured using an automated cell counter (BioRad, Hercules, Calif., TC10). Cells were replenished with fresh media, doxycycline and drug every fifth day.
as §1, §2

Another assay relates to K562 WT-U2AF1 cells. The assay is described as above. As to conditions: 10 uM inhibitor vs DMSO, 7 days, WT-U2AF1 cells (FIG. 13B).
Text: as §3, §4, §1, §2

Assay [3] concerns K562 S34F-U2AF1 cells. As to the kind of experiment: Clonogenic progenitor assay in methylcellulose. As to conditions: 10 uM inhibitor, colonies counted after 7 days, S34F-U2AF1 compared to WT-U2AF1 cells (FIG. 13C).
Text: as §3
Clonogenic progenitor frequencies were determined by plating 1×10^3 K562 cells/ml in methylcellulose (Methocult H4236; Stem Cell Technologies). Colonies were scored after 7 days.
as §1, §2

For `O=C(Nc1nc2ccccc2n1CCN1CCOCC1)c1cccc([N+](=O)[O-])c1` [IRAK1/4 inhibitor], in assay [1], the phospho-IRAK1 level result is recorded as “returned to normal”, the phospho-p65 level result is listed as “returned to normal” and the phospho-pIKK level result is listed as “returned to normal”. Moreover, the “cell viability / survival over 7 days” value in the assay on K562 S34F-U2AF1 cells [2] is listed as “significantly reduced survival”. Moreover, the “decrease in proliferation and viability” value in the assay on K562 WT-U2AF1 cells is reported as “not seen”. For the same compound, in the assay on K562 S34F-U2AF1 cells [3], the “colonies in methylcellulose (leukemic progenitor function)” value is given as “significantly fewer colonies”.
